Measured values as given in patent publication US11285156B2, “Substituted piperazines as KRAS G12C inhibitors” (Amgen Inc., priority 2018, dated 2022).

target: GDP-bound KRAS protein (aa 1-169), containing both G12C and C118A amino acid substitutions (Homo sapiens (Human), UniProt P01116, C118A/G12C); assay: Coupled nucleotide exchange assay (SOS-mediated nucleotide exchange, AlphaScreen); format: biochemical; conditions: 5 min compound pre-incubation
Sequence (P01116 other isoform, or with tags, fused parts or gaps G12C/C118A): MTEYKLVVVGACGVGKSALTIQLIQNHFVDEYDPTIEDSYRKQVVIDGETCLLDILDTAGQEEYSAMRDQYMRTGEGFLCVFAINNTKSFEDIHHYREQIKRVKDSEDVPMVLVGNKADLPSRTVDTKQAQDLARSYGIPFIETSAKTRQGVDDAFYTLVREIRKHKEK

Compared with `C=CC(=O)N1C[C@H](C)N(c2nc(=O)n(-c3c(C)ccnc3C(C)C)c3nc(C45CCCCC4C5)c(Cl)cc23)C[C@H]1C` (atropisomer, axis not shown; (M)) [Example 207, (M)-6-Chloro-4-[(2S,5R)-2,5-dimethyl-4-prop-2-enoyl-piperazin-1-yl]-1-(2-isopropyl-4-methyl-3-pyridyl)-7-[norcaran-1-yl]pyrido[2,3-d]pyrimidin-2-one], `C=CC(=O)N1C[C@H](C)N(c2nc(=O)n(-c3c(C)ccnc3C(C)C)c3nc(N4CCCCC4C)c(Cl)cc23)C[C@H]1C` (mixture of isomers) [Example 69-12, (M)-6-Chloro-4-[(2S,5R)-2,5-dimethyl-4-prop-2-enoyl-piperazin-1-yl]-1-(2-isopropyl-4-methyl-3-pyridyl)-7-[(2SR)-2-methyl-1-piperidyl]pyrido[2,3-d]pyrimidin-2-one] is 3.1-fold higher in “Coupled exchange IC50 (5 min; μM)” value: 0.932 µM for the first, 2.88 µM for the second.

With `C=CC(=O)N1C[C@H](C)N(c2nc(=O)n(-c3c(C)cc(CN(C)C)cc3C(C)C)c3nc(-c4ccccc4F)c(Cl)cc23)C[C@H]1C` (single isomer, unassigned) [Example 121-4] the “Coupled exchange IC50 (5 min; μM)” value was 1.48 µM.

same assay, conditions: read-out: Coupled exchange IC50 (5 min; μM); 5 min compound pre-incubation

`C=CC(=O)N1C[C@H](C)N(c2nc(=O)n(-c3c(C)ccnc3C(C)C)c3nc(CC(C)(C)C)c(Cl)cc23)C[C@H]1C` (atropisomer, axis not shown; (M)) [Example 95-2, (M)-6-chloro-4-[(2S,5R)-2,5-dimethyl-4-prop-2-enoyl-piperazin-1-yl]-7-(2,2-dimethylpropyl)-1-(2-isopropyl-4-methyl-3-pyridyl)pyrido [2,3-d]pyrimidin-2-one] and `C=CC(=O)N1C[C@H](C)N(c2nc(=O)n(-c3c(C)ccnc3C(C)C)c3nc(CCC)c(Cl)cc23)C[C@H]1C` (atropisomer, axis not shown; (M)) [Example 95-6, (M)-6-chloro-4-[(2S,5R)-2,5-dimethyl-4-prop-2-enoyl-piperazin-1-yl]-1-(2-isopropyl-4-methyl-3-pyridyl)-7-propyl-pyrido[2,3-d]pyrimidin-2-one] are within 1.5-fold of each other in IC50: 1.04 µM for the first, 0.823 µM for the second.

`C=CC(=O)N1C[C@H](C)N(c2nc(=O)n(-c3c(C)ccnc3C(C)C)c3nc(C4CCCC4)c(Cl)cc23)C[C@H]1C` (atropisomer, axis not shown; (M)) [Example 95-3, (M)-6-chloro-7-cyclopentyl-4-[(2S,5R)-2,5-dimethyl-4-prop-2-enoyl-piperazin-1-yl]-1-(2-isopropyl-4-methyl-3-pyridyl)pyrido [2,3-d]pyrimidin-2-one] and `C=CC(=O)N1C[C@H](C)N(c2nc(=O)n(-c3c(C)ccnc3C(C)C)c3nc(C4CC4)c(Cl)cc23)C[C@H]1C` (atropisomer, axis not shown; (M)) [Example 95-4, (M)-6-chloro-7-cyclopropyl-4-[(2S,5R)-2,5-dimethyl-4-prop-2-enoyl-piperazin-1-yl]-1-(2-isopropyl-4-methyl-3-pyridyl)pyrido [2,3-d]pyrimidin-2-one] are within 1.5-fold of each other in IC50: 0.631 µM for the first, 0.571 µM for the second.

Going from `C=CC(=O)N1C[C@H](C)N(c2nc(=O)n(-c3c(C)ccnc3C(C)C)c3nc(C#CC(C)(C)C)c(Cl)cc23)C[C@H]1C` (atropisomer, axis not shown; (M)) [Example 95-7, (M)-6-chloro~7-(3,3-dimethylbut-1-ynyl)-4-[(2S,5R)-2,5-dimethyl-4-prop-2-enoyl-piperazin-1-yl]-1-(2-isopropyl-4-methyl-3-pyridyl)pyrido [2,3-d]pyrimidin-2-one] to `C=CC(=O)N1C[C@H](C)N(c2nc(=O)n(-c3c(C)ccnc3C(C)C)c3nc(-c4ncccc4C)c(Cl)cc23)C[C@H]1C` (atropisomer, axis not shown; (M)) [Example 96-1, (M)-6-Chloro-4-[(2S,5R)-2,5-dimethyl-4-prop-2-enoyl-piperazin-1-yl]-1-(2-isopropyl-4-methyl-3-pyridyl)-7-(3-methyl-2-pyridyl)pyrido[2,3-d]pyrimidin-2-one], the IC50 falls from 34 µM to 0.345 µM (99-fold).

Going from `C=CC(=O)N1C[C@H](C)N(c2nc(=O)n(-c3c(C)ccnc3C(C)C)c3nc(-c4ccccc4N(C)C(C)=O)c(Cl)cc23)C[C@H]1C` (atropisomer, axis not shown; (M)) [Example 129-3, (M)-N-[2-[6-Chloro-4-[(2S,5R)-2,5-dimethyl-4-prop-2-enoyl-piperazin-1-yl]-1-(2-isopropyl-4-methyl-3-pyridyl)-2-oxo-pyrido[2,3-d]pyrimidin-7-yl]phenyl]-N-methyl-acetamide] to `C=CC(=O)N1C[C@H](C)N(c2nc(=O)n(-c3c(N(C)C)ccnc3C(C)C)c3nc(-c4ccccc4C)c(Cl)cc23)C[C@H]1C` (single isomer, unassigned) [Example 103-7-1], the IC50 rises from 0.352 µM to 0.653 µM (1.9-fold).

First: C=CC(=O)N1C[C@H](C)N(c2nc(=O)n(-c3c(C)ccnc3C(C)C)c3nc(-c4cc(O)cc5ccccc45)c(F)cc23)C[C@H]1C (atropisomer, axis not shown; (M)) [Example 132-2, (M)-4-[(2S,5R)-2,5-dimethyl-4-prop-2-enoyl-piperazin-1-yl]-6-fluoro-7-(3-hydroxy-1-naphthyl)-1-(2-isopropyl-4-methyl-3-pyridyl)pyrido[2,3-d]pyrimidin-2-one]
Second: C=CC(=O)N1C[C@H](C)N(c2nc(=O)n(-c3c(C)ccnc3C(C)C)c3nc(-c4ccccc4F)c(Cl)nc23)C[C@H]1C (single isomer, unassigned) [Example 106-6-1]
The IC50 of the first is 6.4-fold lower: 0.57 µM for the first, 3.67 µM for the second.

Compared with `C=CC(=O)N1CCN(c2nc(=O)n(-c3c(C)ccnc3C(C)C)c3nc(Cl)c(Cl)cc23)CC1CC#N` (atropisomer, axis not shown; (M)) [Example 144-2, (M)-2-[4-[6,7-Dichloro-1-(2-isopropyl-4-methyl-3-pyridyl)-2-oxo-pyrido[2,3-d]pyrimidin-4-yl]-1-prop-2-enoyl-piperazin-2-yl]acetonitrile], `C=CC(=O)N1CCN(c2nc(=O)n(-c3c(C)ccnc3C(C)C)c3nc(-c4ccccc4F)c(Cl)cc23)[C@@H]2C[C@@H]21` (atropisomer, axis not shown; (M)) [Example 222-1, (M)-4-((1R,6S)-5-Acryloyl-2,5-diazabicyclo[4.1.0]heptan-2-yl)-6-chloro-7-(2-fluorophenyl)-1-(2-isopropyl-4-methylpyridin-3-yl)pyrido[2,3-d]pyrimidin-2(1H)-one] is 26-fold lower in IC50: 24.9 µM for the first, 0.95 µM for the second. The second is the more potent here.

Compared with `C=CC(=O)N1CCN(c2nc(=O)n(-c3c(C)ccnc3C(C)C)c3nc(Cl)c(Cl)cc23)CC1CC#N` (atropisomer, axis not shown; (M)) [Example 144-2-1, (M)-2-[4-[6,7-Dichloro-1-(2-isopropyl-4-methyl-3-pyridyl)-2-oxo-pyrido[2,3-d]pyrimidin-4-yl]-1-prop-2-enoyl-piperazin-2-yl]acetonitrile], `C=CC(=O)N1C[C@H](C)N(c2nc(=O)n(-c3c(Cl)ncnc3C(C)C)c3nc(-c4ccccc4C)c(Cl)cc23)C[C@H]1C` (single isomer, unassigned) [Example 102-6-2] is 88-fold lower in IC50: 63.7 µM for the first, 0.726 µM for the second. The second is the more potent here.

Going from `C=CC(=O)N1C[C@H](C)N(c2nc(=O)n(-c3c(CN4CCCC4)cccc3C(C)C)c3nc(-c4ccccc4F)c(Cl)cc23)C[C@H]1C` (single isomer, unassigned) [Example 80-10-1] to `C=CC(=O)N1C[C@H](C)N(c2nc(=O)n(-c3c(CN(C)C)cccc3C(C)C)c3nc(-c4ccccc4F)c(Cl)cc23)C[C@H]1C` (single isomer, unassigned) [Example 80-14-1], the IC50 falls from 2.04 µM to 1.26 µM (1.6-fold).

Going from `C=CC(=O)N1C[C@H](C)N(c2nc(=O)n(-c3c(CN(C)C)ccnc3C(C)C)c3nc(-c4ccccc4F)c(Cl)cc23)C[C@H]1C` (single isomer, unassigned) [Example 80-16-2] to `C=CC(=O)N1C[C@H](C)N(c2nc(=O)n(-c3c(CN(C)C)ncnc3C(C)C)c3nc(-c4ccccc4F)c(Cl)cc23)C[C@H]1C` (single isomer, unassigned) [Example 80-18-1], the IC50 rises from 0.903 µM to 1.39 µM (1.5-fold). The first is the more potent here.

Going from `C=CC(=O)N1C[C@H](C)N(c2nc(=O)n(-c3c(C)cc(CN(C)C)cc3C(C)C)c3nc(-c4ccccc4F)c(F)cc23)C[C@H]1C` (single isomer, unassigned) [Example 80-20-1] to `C=CC(=O)N1C[C@H](C)N(c2nc(=O)n(-c3c(C)cc(CN(C)C)cc3C(C)C)c3nc(-c4c(O)cccc4F)c(F)cc23)C[C@H]1C` (single isomer, unassigned) [Example 80-21-1], the IC50 falls from 13.9 µM to 0.949 µM (15-fold).

First: C=CC(=O)N1C[C@H](C)N(c2nc(=O)n(-c3c(C)cc(P(C)(C)=O)cc3C(C)C)c3nc(-c4ccccc4F)c(Cl)cc23)C[C@H]1C (single isomer, unassigned) [Example 102-7-2]
Second: C=CC(=O)N1C[C@H](C)N(c2nc(=O)n(-c3c(CC)ncnc3C(C)C)c3nc(-c4ccccc4C)c(Cl)cc23)C[C@H]1C (single isomer, unassigned) [Example 109-2-2]
The IC50 of the first is 23-fold higher: 5.28 µM for the first, 0.226 µM for the second. The second is the more potent here.

`C=CC(=O)N1C[C@H](C)N(c2nc(=O)n(-c3c(N(C)C)ccnc3C(C)C)c3nc(-c4ccccc4C(C)C)c(Cl)cc23)C[C@H]1C` (single isomer, unassigned) [Example 103-1-1] and `C=CC(=O)N1C[C@H](C)N(c2nc(=O)n(-c3c(N(CC)CC)ccnc3C(C)C)c3nc(-c4ccccc4C(C)C)c(Cl)cc23)C[C@H]1C` (single isomer, unassigned) [Example 103-6-1] are within 1.5-fold of each other in IC50: 1.26 µM for the first, 1.15 µM for the second.

Going from `C=CC(=O)N1C[C@H](C)N(c2nc(=O)n(-c3c(N(C)C)ccnc3C(C)C)c3nc(-c4c(F)cccc4NC(=O)CC)c(Cl)cc23)C[C@H]1C` (single isomer, unassigned) [Example 122-2-1] to `C=CC(=O)N1C[C@H](C)N(c2nc(=O)n(-c3c(N(C)C)ccnc3C(C)C)c3nc(-c4c(F)cccc4NC(=O)C4CC4)c(Cl)cc23)C[C@H]1C` (single isomer, unassigned) [Example 122-3-1], the IC50 falls from 17.3 µM to 6.82 µM (2.5-fold). The second is the more potent here.

Going from `C=CC(=O)N1[C@H](C)CN(c2nc(=O)n(-c3c(C)cc(N)nc3C(C)C)c3nc(-c4c(O)cccc4F)c(F)cc23)C[C@@H]1C` (single isomer, unassigned) [Example 123-1] to `C=CC(=O)N1[C@H](C)CN(c2nc(=O)n(-c3c(C)cc(N)nc3C(C)C)c3nc(-c4ccccc4F)c(F)cc23)C[C@@H]1C` (single isomer, unassigned) [Example 123-3], the IC50 rises from 1.25 µM to 14 µM (11-fold).
